The values below come from publication PMC7000521, “Hazard Characterization of Synthetic Cathinones Using Viability, Monoamine Reuptake, and Neuronal Activity Assays” (Frontiers in Neuroscience, 2020).

In general, IC50 refers to the concentration that inhibits the measured activity by half.

One test concerns the target T1, hDAT (Homo sapiens, UniProt Q01959).
T1 construct: expressed in transfected cells
Kind of test: Monoamine uptake assay (fluorescent substrate), hDAT. The format is cell-based. The method, then:
(§1) Human embryonic kidney (HEK) 293 cells stably expressing human DAT, NET, or SERT (kindly provided by Dr. Hoener from F. Hoffmann-La Roche Ltd., Basel, Switzerland) were cultured as described in [Zwartsen et al. (2017)].
(§2) Uptake activity of hNET, hDAT, and hSERT was measured using the Neurotransmitter Transporter Uptake Assay Kit from MDS Analytical Technologies (Sunnyvale, CA, United States) as described in detail previously ([Zwartsen et al., 2017]). The kit contained a mixture consisting of a fluorescent substrate, which resembles the biogenic amine neurotransmitters, and a masking dye that extinguishes extracellular fluorescence. Uptake of the fluorescent substrate, a measure of neurotransmitter transporter function, increases intracellular fluorescence, while extracellular fluorescence is blocked by the masking dye ([Jorgensen et al., 2008]). The mixture was dissolved in Hank’s Balanced Salt Solution (1×) (HBSS) with 20 mM HEPES, and kept up to 1 week at −20°C.
On day 0, HEK 293 cells were seeded (60,000 cells/well) in clear-bottom black-walled 96-well plates coated with poly-L-lysine (PLL, 50 mg/L). On day 1, cells were pre-incubated with the fluorescent substrate mixture (95 μL/well, comprising of the fluorescent substrate and the extracellular masking dye, dissolved in HBSS) for 12 min (t = −12 to t = 0). During incubation, intracellular fluorescence was measured every 3 min. […] Stock solutions and dilutions were freshly prepared in HBSS (1×) at the day of usage. Effects of 3-MMC, 4-MMC, 4-MEC, methylone, pentedrone, MDPV, 3-MMCinternet, and 4-MECinternet were measured at final concentrations of 0.03–300/1000 μM. Fluorescence was measured with a microplate reader (Tecan Infinite M200 microplate; Tecan Trading Männedorf, Switzerland) at 37°C at 430/515 nm excitation/emission wavelength. For more experimental detail see [Zwartsen et al. (2017)].
Data from the monoamine uptake assay were analyzed as described by [Zwartsen et al. (2017)], with minor modifications. Data for α-PVP were reanalyzed from [Zwartsen et al. (2017)]. In short, the fluorescence of each well was background corrected and uptake was determined per well by calculating the change in fluorescence (ΔFU) at 12 min after drug exposure (t = 12) compared to the fluorescence at the start of exposure (t = 0), as a percentage of the fluorescence at the start of exposure (%ΔFU = ((FUt = 12−FUt = 0)/FUt = 0)∗100%; see [Zwartsen et al., 2017]). Plate-matched control values for each compound (e.g., methylone) above or below two times the standard deviation of the average normalized control value were considered outliers and were removed from analysis (4.8%). Thereafter, uptake in drug-exposed wells was expressed as a percentage of control wells on the same plate and all uptake values were scaled between 0 and 100%. Outliers (>mean ± 2×SD) in exposed groups were removed (2.7%) and uptake (% compared to control) was expressed as mean ± SEM of nwells from Nplates.
Concentration–response curves were made for transporter, MEA, and cell viability assays. To calculate IC50 values, a four-parameter logistic curve with a variable slope was used (Y = Bottom + (Top−Bottom)/(1 + 10∧((LogIC50 − X) ^∗ HillSlo pe))) (GraphPad Prism, version 7.04). When applicable, significance between concentrations and controls (for MEA) and different IC50 values [between different transporters (DAT/NET/SERT), MEA parameters (MSR/MBR/MNBR), exposure settings (acute/prolonged/recovery), and drug grade (pharmaceutical/internet)] were determined using unpaired t-tests (two values) or one-way ANOVA’s followed by a post hoc Dunnet’s test (>2 values). All statistical tests were performed using GraphPad Prism. For recovery of neuronal activity, IC50 values and 95% confidence intervals could not always be determined and are reported as higher than the highest concentration tested (e.g., >1000 μM). […]

Test [1] relates to rat primary cortical cultures. Set-up: method as in Zwartsen et al., 2019. The following applies: value [CI], published previously ref Zwartsen et al., 2019, cited from earlier work.
The next test addresses T2, hSERT (Homo sapiens, UniProt P31645).
T2 construct: expressed in transfected cells
Kind of test: Monoamine uptake assay (fluorescent substrate), hSERT. The test is classed as cell-based. The method, then: as §1
as §2, with “The mixture was dissolved in Hank’s Balanced Salt Solution (1×) (HBSS) with 20 mM HEPES, and kept up to 1 week at −20°C.” left out
(§3) On day 0, HEK 293 cells were seeded (60,000 cells/well) in clear-bottom black-walled 96-well plates coated with poly-L-lysine (PLL, 50 mg/L). […] During incubation, intracellular fluorescence was measured every 3 min. […] Effects of 3-MMC, 4-MMC, 4-MEC, methylone, pentedrone, MDPV, 3-MMCinternet, and 4-MECinternet were measured at final concentrations of 0.03–300/1000 μM. Fluorescence was measured with a microplate reader (Tecan Infinite M200 microplate; Tecan Trading Männedorf, Switzerland) at 37°C at 430/515 nm excitation/emission wavelength. […]

The target of another test is T3, hNET (Homo sapiens, UniProt P23975).
T3 construct: expressed in transfected cells
Kind of test: Monoamine uptake assay (fluorescent substrate), hNET. The test is classed as cell-based. Here is the method: as §1
as §2, with “The mixture was dissolved in Hank’s Balanced Salt Solution (1×) (HBSS) with 20 mM HEPES, and kept up to 1 week at −20°C.” left out
as §3

Where two headings read alike, the source gives them in different places.

T1 sequence (Q01959 whole entry): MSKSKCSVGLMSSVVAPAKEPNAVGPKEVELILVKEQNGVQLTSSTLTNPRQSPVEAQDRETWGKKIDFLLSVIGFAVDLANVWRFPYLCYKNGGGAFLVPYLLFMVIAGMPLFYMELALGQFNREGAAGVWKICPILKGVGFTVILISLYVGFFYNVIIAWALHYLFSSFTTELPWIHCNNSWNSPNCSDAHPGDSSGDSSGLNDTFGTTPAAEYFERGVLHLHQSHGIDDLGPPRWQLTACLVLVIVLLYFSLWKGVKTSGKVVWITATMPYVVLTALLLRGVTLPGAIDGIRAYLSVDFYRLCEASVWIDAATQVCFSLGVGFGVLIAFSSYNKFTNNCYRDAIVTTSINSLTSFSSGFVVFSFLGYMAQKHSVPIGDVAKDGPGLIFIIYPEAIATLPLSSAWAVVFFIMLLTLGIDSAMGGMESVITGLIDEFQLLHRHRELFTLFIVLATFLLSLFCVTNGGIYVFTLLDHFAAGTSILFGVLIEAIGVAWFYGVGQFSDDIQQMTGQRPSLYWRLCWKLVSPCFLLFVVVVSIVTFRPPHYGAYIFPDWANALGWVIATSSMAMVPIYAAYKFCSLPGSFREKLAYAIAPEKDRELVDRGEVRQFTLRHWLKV
T2 sequence (P31645 whole entry): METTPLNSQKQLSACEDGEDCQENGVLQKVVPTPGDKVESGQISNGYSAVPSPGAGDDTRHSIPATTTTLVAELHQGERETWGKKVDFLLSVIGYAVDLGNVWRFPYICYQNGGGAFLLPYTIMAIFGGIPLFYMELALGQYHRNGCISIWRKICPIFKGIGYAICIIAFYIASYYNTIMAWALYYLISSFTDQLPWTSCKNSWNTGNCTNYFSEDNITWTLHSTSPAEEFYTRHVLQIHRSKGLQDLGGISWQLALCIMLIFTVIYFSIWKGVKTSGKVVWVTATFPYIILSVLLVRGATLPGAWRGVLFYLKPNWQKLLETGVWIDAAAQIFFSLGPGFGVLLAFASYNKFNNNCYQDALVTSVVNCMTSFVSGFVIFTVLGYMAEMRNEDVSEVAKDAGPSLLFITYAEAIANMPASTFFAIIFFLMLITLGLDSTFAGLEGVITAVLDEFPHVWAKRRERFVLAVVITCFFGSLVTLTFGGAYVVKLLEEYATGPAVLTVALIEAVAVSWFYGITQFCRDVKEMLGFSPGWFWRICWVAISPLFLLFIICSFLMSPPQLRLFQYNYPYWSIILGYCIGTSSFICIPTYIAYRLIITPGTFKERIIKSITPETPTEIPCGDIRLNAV
T3 sequence (P23975 whole entry): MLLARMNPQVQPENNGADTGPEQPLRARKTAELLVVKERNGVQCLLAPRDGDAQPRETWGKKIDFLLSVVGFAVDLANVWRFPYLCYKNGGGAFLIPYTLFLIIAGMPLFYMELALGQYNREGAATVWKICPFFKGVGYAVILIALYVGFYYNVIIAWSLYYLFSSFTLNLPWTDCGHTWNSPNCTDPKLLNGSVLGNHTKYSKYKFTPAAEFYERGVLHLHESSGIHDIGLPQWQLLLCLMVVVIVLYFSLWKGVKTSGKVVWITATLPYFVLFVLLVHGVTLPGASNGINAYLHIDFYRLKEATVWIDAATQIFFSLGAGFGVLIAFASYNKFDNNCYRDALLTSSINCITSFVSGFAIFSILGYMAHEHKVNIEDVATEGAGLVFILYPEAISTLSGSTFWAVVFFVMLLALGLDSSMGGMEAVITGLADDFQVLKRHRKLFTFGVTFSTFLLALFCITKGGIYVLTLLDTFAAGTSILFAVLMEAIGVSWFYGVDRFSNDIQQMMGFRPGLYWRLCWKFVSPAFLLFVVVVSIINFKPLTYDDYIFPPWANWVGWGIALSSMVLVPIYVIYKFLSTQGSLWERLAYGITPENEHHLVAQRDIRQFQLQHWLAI

The compound `CNC(C)C(=O)c1cccc(C)c1` (stereo not drawn) [3-MMC, 2-(methylamino)-1-(3-methylphenyl) propan-1-one] returned an IC50 on hDAT of 2.5 µM.
The same measure, in the same setting: the figure for `CCNC(C)C(=O)c1ccc(C)cc1` (stereo not drawn) [4-MEC, 2-(ethylamino)-1-(4-methylphenyl) propan-1-one] is 1.6 µM; for `CNC(C)C(=O)c1ccc(C)cc1` (stereo not drawn) [4-MMC, 2-(methylamino)-1-(4-methylphenyl) propan-1-one] it is 1.4 µM.
As for `CCCC(C(=O)c1ccc2c(c1)OCO2)N1CCCC1` (stereo not drawn) [MDPV, 1-(1,3-benzodioxol-5-yl)-2-pyrro lidin-1-ylpentan-1-one], the half-inhibitory concentration (IC50) in test [1] (acute exposure 30 min, read-out: Neuronal activity IC50, mean burst rate (MBR), acute) was 40 µM; in test [1] (acute exposure 30 min, read-out: Neuronal activity IC50, mean network burst rate (MNBR), acute), 35 µM; in test [1] (acute exposure 30 min, read-out: Neuronal activity IC50, mean spike rate (MSR), acute) it was 30 µM; in test [1] (prolonged exposure 4.5 h, read-out: Neuronal activity IC50, mean burst rate (MBR), prolonged), 61 µM; against hSERT, 4.5 µM; against hNET it was 0.03 µM. The compound also displayed an IC50 on hDAT of 0.07 µM.
For `CCCC(NC)C(=O)c1ccccc1` (stereo not drawn) [Pentedrone, 2-(methylamino)-1-phenyl pentan-1-one], the results for the IC50 against hSERT and against hDAT were 16 µM and 0.4 µM, respectively.
